Assay results: PubChem BioAssay AID1963969 (Molecular Pharmacology Branch, DTP, NCI, 2024)
pIC50: −log10 of the molar value.

System: 817829-284-R-J1-PDC multi-cell spheroid viability
Assay: Anticancer human tumor 817829-284-R-J1-PDC patient-derived colon adenocarcinoma cell line growth inhibition [PI3K]
Conditions: for pIC50: curve of first compound; for viability, T/C: stronger effect = lower value
Summary of the method: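 Combination activity was assessed by viability in multicellular tumor spheroids carrying HUVEC and MSC components. Agents were tested with PI3K inhibitors from a Cmax-based top dose (or 10 microM) downward in half-log increments.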
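Note: spheroids exposed to agents for seven days before readout.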
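Throughout, for viability, T/C: percent of vehicle DMSO control viability which is 100%.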

`CC(=O)c1c(C)c2cnc(Nc3ccc(N4CCNCC4)cn3)nc2n(C2CCCC2)c1=O` + Cc1nc(NC(=O)N2CCCC2C(N)=O)sc1-c1ccnc(C(C)(C)C(F)(F)F)c1 gave a pIC50 (second compound 0.0316 µM) of 7.57, a pIC50 (second compound 0.1 µM) of 8.36 and a pIC50 (second compound 0.316 µM) of 7.63. The pIC50 (second compound 1 µM) was 8.49, the pIC50 (second compound 3.16 µM) was 8.69 and the pIC50 (second compound 10 µM) was over 9.50. For the same compound, the viability, T/C (second compound 0.0316 µM, first compound 0.000316 µM) was 88.4%, the viability, T/C (second compound 0.0316 µM, first compound 0.001 µM) was 96.1% and the viability, T/C (second compound 0.0316 µM, first compound 0.00316 µM) was 70.8%. The viability, T/C (second compound 0.0316 µM, first compound 0.01 µM) was 60.1%, the viability, T/C (second compound 0.0316 µM, first compound 0.0316 µM) was 52.8% and the viability, T/C (second compound 0.0316 µM, first compound 0.1 µM) was 38.2%. It also gave a viability, T/C (second compound 0.1 µM, first compound 0.000316 µM) of 71.2%, a viability, T/C (second compound 0.1 µM, first compound 0.001 µM) of 79.7% and a viability, T/C (second compound 0.1 µM, first compound 0.00316 µM) of 52.4%. For the same compound, the viability, T/C (second compound 0.1 µM, first compound 0.01 µM) was 45%, the viability, T/C (second compound 0.1 µM, first compound 0.0316 µM) was 38.1% and the viability, T/C (second compound 0.1 µM, first compound 0.1 µM) was 47.6%. For the same compound, the viability, T/C (second compound 0.316 µM, first compound 0.000316 µM) was 75.1%, the viability, T/C (second compound 0.316 µM, first compound 0.001 µM) was 53.8% and the viability, T/C (second compound 0.316 µM, first compound 0.00316 µM) was 65.9%. For the same compound, the viability, T/C (second compound 0.316 µM, first compound 0.01 µM) was 66.9%, the viability, T/C (second compound 0.316 µM, first compound 0.0316 µM) was 34.7% and the viability, T/C (second compound 0.316 µM, first compound 0.1 µM) was 44.7%. The viability, T/C (second compound 1 µM, first compound 0.000316 µM) was 43.6%, the viability, T/C (second compound 1 µM, first compound 0.001 µM) was 55.4% and the viability, T/C (second compound 1 µM, first compound 0.00316 µM) was 51.6%. The viability, T/C (second compound 1 µM, first compound 0.01 µM) was 42.1%, the viability, T/C (second compound 1 µM, first compound 0.0316 µM) was 37.3% and the viability, T/C (second compound 1 µM, first compound 0.1 µM) was 37%. It also gave a viability, T/C (second compound 3.16 µM, first compound 0.000316 µM) of 62.5%, a viability, T/C (second compound 3.16 µM, first compound 0.001 µM) of 58.9% and a viability, T/C (second compound 3.16 µM, first compound 0.00316 µM) of 38.3%. For the same compound, the viability, T/C (second compound 3.16 µM, first compound 0.01 µM) was 49.3%, the viability, T/C (second compound 3.16 µM, first compound 0.0316 µM) was 32% and the viability, T/C (second compound 3.16 µM, first compound 0.1 µM) was 31.5%. For the same compound, the viability, T/C (second compound 10 µM, first compound 0.000316 µM) was 51.8%, the viability, T/C (second compound 10 µM, first compound 0.001 µM) was 43.8% and the viability, T/C (second compound 10 µM, first compound 0.00316 µM) was 40.7%. For the same compound, the viability, T/C (second compound 10 µM, first compound 0.01 µM) was 47.5%, the viability, T/C (second compound 10 µM, first compound 0.0316 µM) was 43.8% and the viability, T/C (second compound 10 µM, first compound 0.1 µM) was 21.3%.
